Measurements from patent US20200095296A1, “USE OF PEPTIDES AS BIOMARKERS IN THE DIAGNOSIS, CONFIRMATION AND TREATMENT OF A NEUROLOGICAL DISORDER AND TCR AND/OR HLA IMMUNOPROFILING IN NEURODEGENERATIVE DISEASE” (THE TRUSTEES OF COLUMBIA UNIVERSITY IN THE CITY OF NEW YORK, priority 2017, published 2020).
Where no end group is shown, it is not given here. [ ]: non-standard residue; d: D form. pT = C[C@@H](OP(=O)(O)O)[C@H](N)C(=O)O; pS = N[C@@H](COP(=O)(O)O)C(=O)O

Tested on: PBMC
Experiment: IFNg/IL-5 dual ELISPOT after 14 day in vitro stimulation of PBMC with Tau peptides
Format: cell-based, human
Conditions: for PD % of Total Responders / PD Total SFC / PD Total Responders: PD donors; for % of total response / Average SFC per responder / Frequency of response / Total SFC per epitope: across all cohorts; for Total Responders / Total SFC: all three cohorts (PD, HC > 50, HC < 35); for HC < 35 Total Responders / HC < 35 Total SFC: healthy controls < 35 years old
Source text: It was investigated whether T cell responses against Tau were detectable in the PD and healthy control (HC) donors. To this end, a panel of overlapping peptides spanning through the entire sequence of the Tau protein was synthesized. Since it is known that the Tau protein is post-translationally modified (mainly by phosphorylation), in several instances phosphorylated peptides were also synthesized. In all, 55 non-modified 16-mers overlapping by 8 and 14 modified 16-mers were synthesized.
PD: n=16, peptides tested 14-16 times; HC above 50 years old denominated as age-matched: n=11 (9-11 times) and HC below 35 years old (HC Young): n=13 (10-13 times).
These peptides were tested utilizing the following assay strategy. Briefly, PBMC from each donor were stimulated in vitro for 14 days as described (Hinz, D., 2015) with pools of 10 to 16 peptides each. After 14 days, the T cell cultures were assayed with IFNg/IL-5 dual ELISPOT assays […]. Positive pools were deconvoluted at day 17 to identify the specific individual epitopes recognized.

[1] = healthy controls > 50 years old

Sequence | PD/HC > 50 Ratio of % Responders | PD/HC > 50 Ratio of Response | HC > 50 % of Total Responders [%] | HC > 50 Total SFC (HC > 50, dominant epitopes) [SFC] | PD % of Total Responders [%] | PD Total SFC (dominant epitopes) [SFC] | % of total response [%] | Average SFC per responder [SFC] | Frequency of response | Total SFC per epitope [SFC] | PD Total Responders | PD Total SFC [SFC] | Total Responders | Total SFC [SFC] | HC < 35 Total Responders | HC < 35 Total SFC [SFC] | HC > 50 Total Responders [1] | HC > 50 Total SFC [1] [SFC]
ADGKTKIATPRGAAPP (listed as Homo sapiens) [Tau 16-mer, start 145] | 1.0 | 0.5 | 50.0 | 3577 | 50.0 | 1633 | 1.5 | 868 | 11.3 | 5210 | – | – | – | – | – | – | – | –
ATLADEVSASLAKQGL (listed as Homo sapiens) [Tau 16-mer, start 426] | 1.5 | 0.8 | 40.0 | 2803 | 60.0 | 2193 | 1.4 | 999 | 9.4 | 4997 | – | – | – | – | – | – | – | –
DFKDRVQSKIGSLDNI (DFKDRVQSKIG[pS]LDNI; listed as Homo sapiens) [Tau 16-mer, start 345] | 0.7 | 0.6 | 60.0 | 4330 | 40.0 | 2397 | 1.9 | 1345 | 9.4 | 6727 | 2 | 2397 | 5 | 6727 | 0 | 0 | 3 | 4330
DFKDRVQSKIGZLDNI | 2.0 | 3.7 | 28.6 | 1220 | 57.1 | 4490 | 1.9 | 972 | 13.2 | 6807 | 4 | 4490 | 7 | 6807 | 1 | 1097 | 2 | 1220
DRSGYSSPGSPGTPGS (DRSGYSSPG[pS]PG[pT]PGS; listed as Homo sapiens) [Tau 16-mer, start 193] | – | – | – | – | – | – | – | – | – | – | 1 | 1175 | 2 | 1332 | 0 | 0 | 1 | 157
DRSGYSSPGZPGXPGS | 5.0 | 7.3 | 11.1 | 187 | 55.6 | 1360 | 1.6 | 611 | 17.0 | 5499 | 5 | 1360 | 9 | 5499 | 3 | 3952 | 1 | 187
GDTSPRHLSNVSSTGS (listed as Homo sapiens) [Tau 16-mer, start 401] | 0.3 | 0.6 | 50.0 | 1657 | 16.7 | 997 | 1.1 | 633 | 11.3 | 3798 | – | – | – | – | – | – | – | –
GKVQIINKKLDLSNVQ (listed as Homo sapiens) [Tau 16-mer, start 273] | 2.5 | 3.3 | 20.0 | 5560 | 50.0 | 18290 | 8.6 | 1511 | 37.7 | 30211 | – | – | – | – | – | – | – | –
GQKGQANATRIPAKTP (listed as Homo sapiens) [Tau 16-mer, start 161] | 4.0 | 3.5 | 16.7 | 1770 | 66.7 | 6247 | 2.3 | 1361 | 11.3 | 8164 | – | – | – | – | – | – | – | –
HVTQARMVSKSKDGTG (listed as Homo sapiens) | 5.0 | 66.9 | 10.0 | 133 | 50.0 | 8916 | 4.2 | 1468 | 18.9 | 14677 | – | – | – | – | – | – | – | –
IDMVDSPQLATLADEV (listed as Homo sapiens) [Tau 16-mer, start 417] | – | – | – | – | – | – | – | – | – | – | 1 | 173 | 1 | 173 | 0 | 0 | 0 | 0
IDMVDZPQLATLADEV | – | – | – | – | – | – | – | – | – | – | 1 | 197 | 5 | 1703 | 2 | 563 | 2 | 943
IKHVPGGGSVQIVYKP (listed as Homo sapiens) [Tau 16-mer, start 297] | 1.3 | 11.6 | 33.3 | 737 | 44.4 | 8565 | 3.4 | 1319 | 17.0 | 11875 | – | – | – | – | – | – | – | –
KIGSLDNITHVPGGGN (listed as Homo sapiens) [Tau 16-mer, start 353] | inf | inf | 0.0 | 0 | 100.0 | 4070 | 1.2 | 4070 | 1.9 | 4070 | – | – | – | – | – | – | – | –
KKIETHKLTFRENAKA (listed as Homo sapiens) [Tau 16-mer, start 369] | 1.4 | 1.4 | 31.3 | 5898 | 43.8 | 8190 | 5.4 | 1174 | 30.2 | 18790 | – | – | – | – | – | – | – | –
KTDHGAEIVYKSPVVS (listed as Homo sapiens) [Tau 16-mer, start 385] | 7.0 | 5.5 | 8.3 | 2437 | 58.3 | 13336 | 5.7 | 1679 | 22.6 | 20142 | – | – | – | – | – | – | – | –
KVAVVRTPPKSPSSAK (KVAVVR[pT]PPKSPSSAK; listed as Homo sapiens) | inf | inf | 0.0 | 0 | 100.0 | 4556 | 1.3 | 911 | 9.4 | 4556 | 5 | 4556 | 5 | 4556 | 0 | 0 | 0 | 0
KVAVVRXPPKSPSSAK | 4.0 | 3.2 | 13.0 | 6987 | 52.2 | 22410 | 13.2 | 12014 | 43.4 | 46324 | 12 | 22410 | 23 | 46324 | 8 | 16927 | 3 | 6987
